For this data set the following is noted: Liquid, Closed cell (Static) method.

± gives the expanded uncertainty stated by the source.

Usually vapor or sublimation pressure stands for the pressure of vapour in equilibrium with the condensed phase.

Take `CCCCCCCCCC(=O)OCC` [ethyl decanoate]: the “vapor or sublimation pressure” value is recorded as 0.5827 ± 0.036 kPa (373.15 K); 0.9771 ± 0.025 kPa (383.15 K); 1.586 ± 0.021 kPa (393.15 K); 2.498 ± 0.027 kPa (403.15 K); 3.829 ± 0.035 kPa (413.15 K); 5.726 ± 0.048 kPa (423.15 K). For the same compound, the “vapor or sublimation pressure” value (433.15 K) is on record as 8.371 ± 0.066 kPa, the “vapor or sublimation pressure” value (443.15 K) was 11.99 ± 0.091 kPa and the “vapor or sublimation pressure” value (453.15 K) was found to be 16.84 ± 0.12 kPa.
For the compound `CCCCCC(=O)OCC` [ethyl hexanoate], the “vapor or sublimation pressure” value is on record as 11.35 ± 0.24 kPa (373.15 K); 16.69 ± 0.14 kPa (383.15 K); 23.94 ± 0.19 kPa (393.15 K); 33.59 ± 0.27 kPa (403.15 K); 46.18 ± 0.37 kPa (413.15 K); 62.32 ± 0.49 kPa (423.15 K). The “vapor or sublimation pressure” value is on record as 82.69 ± 0.65 kPa (433.15 K), 108.02 ± 0.85 kPa (443.15 K) and 139.11 ± 1.1 kPa (453.15 K).
As for `CCCCCCCCCCCCCC` [tetradecane], the “vapor or sublimation pressure” value runs as follows: (373.15 K) 0.444 ± 0.028 kPa; (383.15 K) 0.7516 ± 0.02 kPa; (393.15 K) 1.23 ± 0.031 kPa; (403.15 K) 1.954 ± 0.044 kPa; (413.15 K) 3.017 ± 0.065 kPa; (423.15 K) 4.543 ± 0.096 kPa. The “vapor or sublimation pressure” value runs as follows: (433.15 K) 6.684 ± 0.14 kPa; (443.15 K) 9.627 ± 0.2 kPa; (453.15 K) 13.6 ± 0.1 kPa.
As for `CCCCCCCCCCCCCC(=O)OCC` [ethyl tetradecanoate], the “vapor or sublimation pressure” value (373.15 K) stood at 0.0326 ± 0.0025 kPa; the “vapor or sublimation pressure” value (383.15 K) is given as 0.0623 ± 0.0044 kPa; the “vapor or sublimation pressure” value (393.15 K) worked out at 0.1143 ± 0.0078 kPa; the “vapor or sublimation pressure” value (403.15 K) worked out at 0.2019 ± 0.013 kPa; the “vapor or sublimation pressure” value (413.15 K) is 0.3448 ± 0.022 kPa; the “vapor or sublimation pressure” value (423.15 K) was 0.5712 ± 0.036 kPa. Also, the “vapor or sublimation pressure” value runs as follows: (433.15 K) 0.9198 ± 0.024 kPa; (443.15 K) 1.443 ± 0.021 kPa; (453.15 K) 2.211 ± 0.025 kPa.

(Values after the NIST ThermoML archive (doi:10.1021/je301294a).)
